Activity calls are given as the source filed them. No cut-off for these calls is given here.
Columns and labels:
Format in all cases: functional
Botrytis cinerea = assay: In vitro antifungal activity against Botryotinia fuckeliana assessed as inhibition at 0.1 %
[1] = tested on: Xanthomonas campestris pv. campestris; assay: In vitro antibacterial activity against Xanthomonas campestris pv. campestris KF2 assessed as inhibition at 0.1 %
[2] = tested on: Xanthomonas euvesicatoria; assay: In vitro antibacterial activity against Xanthomonas euvesicatoria P-2092 assessed as inhibition at 0.1 %
Agrobacterium sp. = assay: In vitro antibacterial activity against Agrobacterium radiobacter pv. tumefaciens assessed as inhibition at 0.1 %
[3] = tested on: Xanthomonas phaseoli pv. phaseoli; assay: In vitro antibacterial activity against Xanthomonas campestris pv. phaseoli assessed as inhibition at 0.1 %
Pseudomonas viridiflava = assay: In vitro antibacterial activity against Pseudomonas viridiflava 8 assessed as inhibition at 0.1 %
[4] = tested on: Pseudomonas savastanoi pv. phaseolicola; assay: In vitro antibacterial activity against Pseudomonas syringae pv. phaseolicola E81 assessed as inhibition at 0.1 %
[5] = tested on: Pseudomonas savastanoi pv. glycinea; assay: In vitro antibacterial activity against Pseudomonas syringae pv. glycinea S1 assessed as inhibition at 0.1 %
[6] = tested on: Agrobacterium tumefaciens; assay: In vivo antibacterial activity against Agrobacterium tumefaciens infected carrots assessed as effective at 0.01%

SMILES | diameter of the inhibition zone (DIZ) (Botrytis cinerea) | diameter of the inhibition zone (DIZ) [1] | diameter of the inhibition zone (DIZ) [2] | diameter of the inhibition zone (DIZ) (Agrobacterium sp.) | also measured
CCCCn1c(/N=C/c2ccc([N+](=O)[O-])o2)nc2cc(C)c(C)cc21 | 3 cm |  |  |  | 
Nc1nc2ccccc2n1Cc1cccc(F)c1 |  | 3 cm | 3 cm | 3 cm | 
CCn1cnc2cc(C)c(C)cc21 |  | 3 cm | 3 cm | 3 cm | 
Cc1ccc(Cn2cnc3cc(C)c(C)cc32)cc1 | 1 cm | 2 cm |  |  | inhibition [3]: inactive; diameter of the inhibition zone (DIZ) (Pseudomonas viridiflava): 1 cm; inhibition [2]: inactive; diameter of the inhibition zone (DIZ) [4]: 1 cm; diameter of the inhibition zone (DIZ) [5]: 1 cm
Cc1cc2ncn(C(C)(C)C)c2cc1C |  | 3 cm | 3 cm | 3 cm | 
Nc1nc2ccccc2n1/N=C/c1ccc([N+](=O)[O-])o1 |  | 2 cm | 1 cm |  | diameter of the inhibition zone (DIZ) [3]: 3 cm; diameter of the inhibition zone (DIZ) (Pseudomonas viridiflava): 2 cm; diameter of the inhibition zone (DIZ) [4]: 2 cm; diameter of the inhibition zone (DIZ) [5]: 2 cm
Cc1ccccc1Cn1c(N)nc2ccccc21 |  | 3 cm | 3 cm | 3 cm | 
CCCCn1c(/N=C/c2ccc([N+](=O)[O-])o2)nc2ccccc21 | 3 cm | 3 cm | 1 cm | 3 cm | Efficacy [6]: 70%
CCCCCCn1c(/N=C/c2ccc([N+](=O)[O-])o2)nc2ccccc21 |  | 2 cm | 2 cm | 3 cm | Efficacy [6]: 70%
Cc1ccc(Cn2c(N)nc3cc(C)c(C)cc32)cc1 |  | 2 cm | 2 cm | 3 cm | 
Cc1cc2nc(/N=C/c3ccc([N+](=O)[O-])o3)n(Cc3ccc(Cl)cc3)c2cc1C | 3 cm | 1 cm | 1 cm |  | diameter of the inhibition zone (DIZ) [3]: 3 cm; Efficacy [6]: 70%; diameter of the inhibition zone (DIZ) (Pseudomonas viridiflava): 1 cm; diameter of the inhibition zone (DIZ) [4]: 2 cm; diameter of the inhibition zone (DIZ) [5]: 2 cm
Cc1cc2ncn(Cc3ccc(Cl)cc3)c2cc1C |  | 1 cm | 1 cm |  | inhibition (Botrytis cinerea): inactive; inhibition [3]: inactive; Efficacy [6]: 30%; inhibition (Pseudomonas viridiflava): inactive; inhibition [4]: inactive; inhibition [5]: inactive
O=[N+]([O-])c1ccc(/C=N/c2nc3ccccc3n2Cc2cccc(F)c2)o1 |  | 3 cm | 3 cm | 3 cm | 
Cc1cc2c(cc1C)[n+](N)cn2Cc1ccc(Cl)cc1.O=S(=O)([O-])c1ccccc1 |  | 2 cm | 2 cm |  | diameter of the inhibition zone (DIZ) [3]: 2 cm; diameter of the inhibition zone (DIZ) (Pseudomonas viridiflava): 2 cm; inhibition [4]: inactive; inhibition [5]: inactive
O=[N+]([O-])c1ccc(/C=N/c2nc3ccccc3[nH]2)o1 | 3 cm | 2 cm | 1 cm | 3 cm | diameter of the inhibition zone (DIZ) [3]: 3 cm; diameter of the inhibition zone (DIZ) (Pseudomonas viridiflava): 2 cm; diameter of the inhibition zone (DIZ) [4]: 2 cm; diameter of the inhibition zone (DIZ) [5]: 2 cm
CCn1c(N)nc2ccccc21 | 3 cm | 3 cm | 1 cm | 3 cm | 
O=[N+]([O-])c1ccc(/C=N/c2nc3ccccc3n2Cc2ccccc2Cl)o1 | 1 cm |  |  |  | inhibition [1]: inactive; inhibition [3]: inactive; Efficacy [6]: 70%; inhibition (Pseudomonas viridiflava): inactive; inhibition [2]: inactive; diameter of the inhibition zone (DIZ) [4]: 1 cm; diameter of the inhibition zone (DIZ) [5]: 3 cm
Cc1cc2nc(/N=C/c3ccc([N+](=O)[O-])o3)n(Cc3cccc(F)c3)c2cc1C |  |  | 3 cm | 3 cm | diameter of the inhibition zone (DIZ) [3]: 3 cm
Cc1ccc(Cn2c(/N=C/c3ccc([N+](=O)[O-])o3)nc3cc(C)c(C)cc32)cc1 |  |  | 3 cm | 3 cm | diameter of the inhibition zone (DIZ) [3]: 3 cm
Cc1cc2nc(/N=C/c3ccc([N+](=O)[O-])o3)n(Cc3ccccc3Cl)c2cc1C |  |  | 3 cm | 3 cm | diameter of the inhibition zone (DIZ) [3]: 3 cm
CCn1c(N)nc2cc(C)c(C)cc21 | 3 cm | 3 cm | 3 cm | 2 cm | 
COc1cccc(Cn2cnc3cc(C)c(C)cc32)c1 |  | 2 cm | 3 cm | 3 cm | 

SMILES | diameter of the inhibition zone (DIZ) (Botrytis cinerea) | diameter of the inhibition zone (DIZ) [1] | diameter of the inhibition zone (DIZ) [2] | diameter of the inhibition zone (DIZ) (Agrobacterium sp.) | also measured
O=[N+]([O-])c1ccc(/C=N/c2nc3ccccc3n2Cc2ccc(Cl)cc2)o1 |  |  |  | 3 cm | inhibition (Botrytis cinerea): inactive
CCCCn1cnc2cc(C)c(C)cc21 | 3 cm | 2 cm | 2 cm | 3 cm | 
Cc1cc2nc(N)n(/N=C/c3ccc([N+](=O)[O-])o3)c2cc1C |  | 3 cm | 3 cm | 3 cm | 
CCCCCCn1c(N)nc2ccccc21 | 3 cm |  |  |  | Efficacy [6]: 30%
Cc1ccc(Cn2c(N)nc3ccccc32)cc1 |  | 3 cm | 3 cm | 3 cm | 
CCn1c(/N=C/c2ccc([N+](=O)[O-])o2)nc2ccccc21 | 3 cm | 3 cm | 1 cm | 3 cm | Efficacy [6]: 70%
Cc1cc2nc(/N=C/c3ccc([N+](=O)[O-])o3)n(Cc3cccc(Cl)c3)c2cc1C |  |  |  | 3 cm | inhibition (Botrytis cinerea): inactive
Cc1cc2nc(N)n(Cc3cccc(F)c3)c2cc1C |  | 3 cm | 3 cm | 3 cm | 
Cc1ccccc1Cn1c(/N=C/c2ccc([N+](=O)[O-])o2)nc2ccccc21 |  | 3 cm | 3 cm | 3 cm | 
Cc1cccc(Cn2c(/N=C/c3ccc([N+](=O)[O-])o3)nc3ccccc32)c1 |  | 3 cm | 2 cm | 3 cm | 
Cc1cc2nc(N)n(Cc3ccccc3Cl)c2cc1C |  | 2 cm | 3 cm | 3 cm | 
Nc1nc2ccccc2n1Cc1ccc(Cl)cc1 | 1 cm | 1 cm |  |  | inhibition [3]: inactive; diameter of the inhibition zone (DIZ) (Pseudomonas viridiflava): 1 cm; inhibition [2]: inactive; diameter of the inhibition zone (DIZ) [4]: 1 cm; diameter of the inhibition zone (DIZ) [5]: 1 cm
Cc1cccc(OCn2c(/N=C/c3ccc([N+](=O)[O-])o3)nc3ccccc32)c1 |  | 3 cm | 3 cm | 3 cm | 
Cc1cc2nc(/N=C/c3ccc([N+](=O)[O-])o3)[nH]c2cc1C |  | 3 cm | 3 cm | 3 cm | 
CC(C)(C)n1c(N)nc2ccccc21 | 3 cm |  |  |  | 
Nc1nc2ccccc2n1Cc1ccccc1Cl |  | 3 cm | 2 cm |  | inhibition (Botrytis cinerea): inactive; diameter of the inhibition zone (DIZ) [3]: 1 cm; diameter of the inhibition zone (DIZ) (Pseudomonas viridiflava): 2 cm; inhibition [4]: inactive; inhibition [5]: inactive
Cc1cc2ncn(Cc3cccc(Cl)c3)c2cc1C | 1 cm | 1 cm | 2 cm |  | inhibition [3]: inactive; diameter of the inhibition zone (DIZ) (Pseudomonas viridiflava): 2 cm; inhibition [4]: inactive; diameter of the inhibition zone (DIZ) [5]: 2 cm
Cc1cc2nc(N)n(Cc3ccc(Cl)cc3)c2cc1C |  | 2 cm | 1 cm |  | diameter of the inhibition zone (DIZ) [3]: 1 cm; diameter of the inhibition zone (DIZ) (Pseudomonas viridiflava): 1 cm; diameter of the inhibition zone (DIZ) [4]: 2 cm; diameter of the inhibition zone (DIZ) [5]: 2 cm
Cc1cccc(Cn2cnc3cc(C)c(C)cc32)c1 |  | 2 cm | 3 cm | 3 cm | 
Cc1cc2nc(N)n(Cc3cccc(Cl)c3)c2cc1C | 3 cm | 3 cm | 3 cm | 2 cm | diameter of the inhibition zone (DIZ) [3]: 3 cm; diameter of the inhibition zone (DIZ) (Pseudomonas viridiflava): 2 cm; diameter of the inhibition zone (DIZ) [4]: 2 cm; diameter of the inhibition zone (DIZ) [5]: 2 cm
Cc1cc2ncn(Cc3ccccc3C)c2cc1C |  | 2 cm | 3 cm | 3 cm | 

Reference: ChEMBL document CHEMBL3045028, “Synthesis, AntiBacteriol, and Antifungal Activities of Some New Benzimidazoles” (1992)
